Tests used:
[1] = target: T1, Plasmin-SK (Homo sapiens, UniProt P00747); assay: Plasmin-fibrin system (fibrin plate method); assay type: biochemical
T1 construct: made in house
Description: 1. Plasmin-SK: The euglobulin fraction obtained from human blood plasma is dissolved in buffer (1) which is described below and then, activated with streptokinase (Lederle) [Annual Report of Takeda Research Laboratories, 28, 140 (1969)].
1. Plasmin-fibrin system (fibrin plate method): Ten ml of a fibrinogen solution (1%, buffer (1)) is placed in a petri dish (9 cm in diameter) and gelled by the addition of 0.2 ml of thrombin [50 J. P. units (Japanese Pharmacopeia units)/ml, 0.145 M sodium chloride]. The gel is allowed to stand at 30° C for 30 minutes to prepare a fibrin plate. Meanwhile, paper discs (8mm in diameter, water-absorbing capacity: 0.025 ml) are dipped in a plasminostreptin solution of varying concentrations and allowed to dry on a filter paper in the air.
Then, 0.015 ml of a plasmin-SK solution is dropped onto each of the discs, which is placed on the above fibrin plate. After the system is allowed to stand at 37° C for 5 to 10 hours, the formation of lyzed zone in evaluated. The plasmin-inhibiting activity of plasminostreptin is indicated as the concentration of plasminostreptin solution required for a complete inhibition of fibrinolysis.

[2] = target: T2, plasmin-UK (Homo sapiens, UniProt P00747); assay: Plasmin-fibrin system (determination of clot lysis time); assay type: biochemical; details: 50% inhibition of 0.08 casein units of plasmin-UK
T2 construct: purchased Midorijuji
Description: (§1) 2. Plasmin - UK (Midorijuji, urokinase-activated plasmin)
(2) Plasmin-fibrin system (determination of clot lysis time): Into a small test tube are poured 0.4 ml of a fibrinogen solution (0.25%, buffer (1)), 0.3 ml of buffer (1) and 0.1 ml of plasminostreptin solution of varying concentrations, followed by the addition of 0.1 ml of a plasmin-UK solution [0.8 casein units/ml, buffer (1)]. The mixture in blended well and immediately thereafter, 0.1 ml of a thrombin solution (50 J. P. units/ml, 0.145 M sodium chloride) is added. The resulting gel is allowed to stand at 37° C and the time necessary to lyse the clot is measured. The plasmin-inhibiting activity of plasminostreptin is determined by the procedure set forth in Biochimica Biophysica Acta. 214, 411 (1970). Thus, the amount of plasminostreptin which is required for a 50% inhibition of the activity of 0.08 casein units of plasmin-UK, which occurs in the reaction mixture, is determined from the concentration of plasminostreptin which will double the clot lysis time in the absence of plasminostreptin, and the above amount is indicated in units of ID50.
Target sequence in this assay (P00747 581-810 limits assumed): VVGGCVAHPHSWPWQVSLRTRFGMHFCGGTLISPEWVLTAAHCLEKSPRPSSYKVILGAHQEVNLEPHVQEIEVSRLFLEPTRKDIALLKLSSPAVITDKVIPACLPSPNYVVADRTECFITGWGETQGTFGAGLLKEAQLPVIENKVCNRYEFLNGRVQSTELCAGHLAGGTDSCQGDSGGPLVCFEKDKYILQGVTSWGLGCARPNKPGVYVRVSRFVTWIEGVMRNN
Target sequence in this assay (P00747 97-580 partner limits assumed): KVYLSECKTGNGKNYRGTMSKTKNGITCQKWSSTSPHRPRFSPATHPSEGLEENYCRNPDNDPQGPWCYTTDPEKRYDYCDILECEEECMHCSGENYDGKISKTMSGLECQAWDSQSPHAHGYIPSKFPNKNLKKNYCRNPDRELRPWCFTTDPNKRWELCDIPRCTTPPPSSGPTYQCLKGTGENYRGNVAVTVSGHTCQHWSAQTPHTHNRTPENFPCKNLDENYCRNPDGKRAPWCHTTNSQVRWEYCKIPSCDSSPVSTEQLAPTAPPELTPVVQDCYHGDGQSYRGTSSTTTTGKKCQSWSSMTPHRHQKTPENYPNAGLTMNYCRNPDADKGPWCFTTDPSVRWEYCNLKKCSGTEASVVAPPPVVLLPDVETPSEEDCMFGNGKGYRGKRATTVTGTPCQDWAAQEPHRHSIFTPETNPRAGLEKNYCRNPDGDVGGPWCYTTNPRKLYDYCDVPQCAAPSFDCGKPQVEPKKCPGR

[3] = target: T2, plasmin-UK; assay: Plasmin-casein system; assay type: biochemical; details: 50% inhibition of 0.4 casein units of plasmin-UK; casein substrate
Description: as §1
Target sequence in this assay (P00747 581-810 limits assumed): as the sequence (P00747 581-810 limits assumed) above
Target sequence in this assay (P00747 97-580 partner limits assumed): as the sequence (P00747 97-580 partner limits assumed) above
3. plasmin-casein system: Into a test tube are poured 1 ml of casein solution [4%, buffer (2)], 0.5 ml of buffer (2) and 0.3 ml of a plasminostreptin solution of varying concentrations, followed by the addition of 0.2 ml of plasmin-UK solution [2 casein units/ml, buffer (2)]. The mixture is blended well and allowed to stand at 37° C for 20 minutes. The reaction is terminated by the addition of 2 ml of 1.7 M perchloric acid and the system is allowed to stand at room temperature for another 1 hour. The reaction mixture is filtered through a filter paper and the absorbance of the resulting filtrate at 280 mμ is measured.
The plasmin-inhibiting activity of plasminostreptin is determined and indicated as follows.
Thus, the amount of plasminostreptin is determined which is required to effect a 50% inhibition of the activity of 0.4 casein units of plasmin-UK in the absence of plasminostreptin and is shown in units of ID50.

[4] = target: T3, Trypsin (Bos taurus, UniProt P00760); assay: Trypsin-casein system; assay type: biochemical; details: 50% inhibition of 10 μg of trypsin; casein substrate
T3 construct: purchased Sigma Type III
T3 sequence (P00760 24-246): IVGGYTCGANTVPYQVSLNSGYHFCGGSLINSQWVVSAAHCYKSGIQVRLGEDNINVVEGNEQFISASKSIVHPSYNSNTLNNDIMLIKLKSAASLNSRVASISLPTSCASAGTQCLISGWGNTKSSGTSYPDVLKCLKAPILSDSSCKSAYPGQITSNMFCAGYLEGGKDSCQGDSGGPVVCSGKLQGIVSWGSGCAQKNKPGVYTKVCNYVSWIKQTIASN
Description: 3. Trypsin (Sigma, crystalline, Type III)
Into a test tube are poured 1 ml of a casein solution [2%, buffer (2)], 0.5 ml of buffer (2) and 0.3 ml of a plasminostreptin solution of varying concentrations and after the addition of 0.2 ml of a trypsin solution [50 μg/ml, buffer(2)], the mixture is blended well and allowed to stand under conditions similar to those described for the plasmin-casein system. Thereafter, also in the same manner as described above, the amount of plasminostreptin required for a 50% inhibition of the activity of 10 μg of trypsin in the absence of plasminostreptin is determined and indicated in units of ID50.

[5] = system: Fusarium alkaline protease; assay: Fusarium alkaline protease-casein system; assay type: biochemical; details: 50% inhibition of 4 μg of Fusarium alkaline protease; casein substrate, pH 10.5
Description: 4. fusarium crystalline alkaline protease (U.S.P. No. 3652399)
(§2) Into a test tube are poured 1 ml of a casein solution [2%, buffer (3)], 0.5 ml of buffer (3), and 0.4 ml of a plasminostreptin solution of varying concentration and after the addition of 0.1 ml of either a Fusarium alkaline protease solution [40 μg/ml, buffer (3)] or Nagarse solution [100 μg/ml, buffer (3)], the mixture is blended well and allowed to stand under conditions similar to those described for the plasmin-casein system. Thereafter, also in the same manner as described above, the amount of plasminostreptin required for a 50% inhibition of the activity of 4 μg of Fusarium alkaline protease and 10 μg of Nagarse in the absence of plasminostreptin is determined, respectively, and indicated in units of ID50.

[6] = target: T4, Nagarse (Bacillus amyloliquefaciens, UniProt P00782); assay: Nagarse-casein system; assay type: biochemical; details: 50% inhibition of 10 μg of Nagarse; casein substrate, pH 10.5
T4 construct: purchased Nagase Sangyo
T4 sequence (P00782 108-382): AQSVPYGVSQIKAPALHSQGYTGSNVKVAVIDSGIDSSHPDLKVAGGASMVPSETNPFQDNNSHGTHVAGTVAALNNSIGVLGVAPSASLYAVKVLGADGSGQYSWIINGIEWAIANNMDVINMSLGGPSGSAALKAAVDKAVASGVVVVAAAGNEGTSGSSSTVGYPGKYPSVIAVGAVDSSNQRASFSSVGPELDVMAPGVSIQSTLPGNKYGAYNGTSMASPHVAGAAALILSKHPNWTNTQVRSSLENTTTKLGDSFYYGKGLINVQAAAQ
Description: 5. Nagarse(crystalline protease, Nagase Sangyo)
as §2

[7] = target: T5, kallikrein (Beyer, Depot - Padutin) (Sus scrofa, UniProt P00752); assay: Kallikrein esterase activity against benzoylarginine ethyl ester; assay type: biochemical; details: result in words
T5 construct: purchased Beyer (so in the source); Bayer) Depot - Padutin

[8] = target: T2, plasmin-UK; assay: Plasmin activity of rat blood plasma before and after intravenous administration; assay type: in vivo; details: rats, 0.8 mg intravenous, 1 hour after administration; result in words
Description: From each of five rats (male, SD, 7 weeks old), blood samples are taken before the administration of plasminostreptin and also 1 hour after the intravenous administration of 0.8 mg plasminostreptin. The plasma is separated from each of the blood samples and the abovementioned plasmin-UK solution is added in each plasma sample to various concentrations.
Immediately thereafter, the activity of plasmin in each plasma sample is determined using casein as substrate. The plasmin activity of blood plasma samples from each rat before and after the administration of plasminostreptin are compared.
Target sequence in this assay (P00747 581-810 limits assumed): as the sequence (P00747 581-810 limits assumed) above
Target sequence in this assay (P00747 97-580 limits assumed): as the sequence (P00747 97-580 partner limits assumed) above

[9] = system: mice; assay: Acute toxicity tests in mice; assay type: in vivo
Excerpt: The toxicity of plasminostreptin is extremely low and its LD50 values as determined by acute toxicity tests in mice are more than 5 g/kg orally, more than 5 g/kg intraperitoneally and 2 to 3 g/kg, intravenously.

[10] = Solubility; assay type: physicochemical
[11] = Stability (heat treatment, remaining activity); assay type: physicochemical; details: 30 minutes' treatment at pH 4-9 and at 100° C
Description: More than 50 percent of the original activity remains intact even after a 30 minutes' treatment at pH 4-9 and at 100° C.

[12] = Isoelectric point by isoelectric focussing method; assay type: physicochemical
Excerpt: 6. Isoelectric point: about 6.3 as determined by the isoelectric focussing method Acta Chemica Scandinavica,20, 820 (1966)

T1 sequence (P00747 581-810 limits assumed): as the sequence (P00747 581-810 limits assumed) above
T1 sequence (P00747 97-580 partner limits assumed): as the sequence (P00747 97-580 partner limits assumed) above
T5 sequence (P00752 8-246): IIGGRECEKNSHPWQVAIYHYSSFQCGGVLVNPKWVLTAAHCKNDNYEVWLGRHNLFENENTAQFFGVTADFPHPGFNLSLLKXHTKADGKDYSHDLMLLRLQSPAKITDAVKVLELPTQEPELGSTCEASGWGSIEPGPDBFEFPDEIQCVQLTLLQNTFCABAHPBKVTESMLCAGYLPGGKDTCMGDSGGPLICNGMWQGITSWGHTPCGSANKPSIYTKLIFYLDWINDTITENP

Q: What does the source list for plasminostreptin?
A: concentration for a complete inhibition of fibrinolysis ([1]; fibrin plate method, crystalline product of Example 1): 20 µg/mL; Concentration for complete inhibition ([1]; fibrin plate, complete inhibition of fibrinolysis, Table 3): < 30 µg/mL; ID50 [2]: < 10 µg; ID50 [3]: < 10 µg; ID50 [4]: < 5 µg; ID50 [5]: < 6 µg; ID50 [6]: < 5 µg; Inhibition of the activity of kallikrein [7]: can hardly be detected; plasmin activity of blood plasma after administration [8]: significantly inhibited; LD50 ([9]; intraperitoneally): more than 5 g/kg; LD50 ([9]; orally): more than 5 g/kg; Solubility in aqueous solution ([10]; ammonium sulfate at 60% saturation): almost completely precipitated; Solubility ([10]; glacial acetic acid, alcohols, acetone, chloroform, ether, hexane and other organic solvents): only sparingly soluble; Solubility in aqueous solution ([10]; neighborhood of pH 6): solubility drops; Solubility ([10]; pyridine): slightly soluble; Solubility ([10]; water and aqueous ammonia): Soluble; original activity remaining intact [11]: More than 50%; Isoelectric point [12]: about 6.3
